Laboratory results published in the NIST ThermoML archive (doi:10.1016/j.tca.2013.11.010).

How the values were obtained:
[1] = relative permittivity at various frequencies (dimensionless); conditions: 101.3 kPa, Liquid, Frequency=2 MHz, Parallel plate capacitor
[2] = refractive index (Na D-line) (dimensionless); conditions: 101.33 kPa, Liquid, Standard Abbe refractometry
[3] = for surface tension liquid-gas: Drop volume; for viscosity / speed of sound / mass density: 101.33 kPa; for viscosity / speed of sound / mass density / vapor or sublimation pressure: Liquid; for viscosity: Capillary tube (Ostwald / Ubbelohde) method; for speed of sound: Sing-around technique in a fixed-path interferometer; for mass density: Vibrating tube method; for vapor or sublimation pressure: Ebulliometric method (Recirculating still)

CCOC(=O)C(C)O (racemic) [DL-ethyl lactate]
Conditions | mass density, [3] [kg/m3] | refractive index, [2] | relative permittivity, [1] | speed of sound, [3] [m/s] | surface tension liquid-gas, [3] [mN/m] | vapor or sublimation pressure, [3] [kPa] | viscosity, [3] [mPa·s]
278.15 K | 1050.05 | – | 17.791 | 1354.5 | 31.47 | – | 4.479
280.65 K | 1047.37 | – | 17.538 | 1345.2 | 31.21 | – | 4.091
283.15 K | 1044.68 | 1.41751 | 17.219 | 1335.7 | 30.94 | – | 3.75
285.65 K | 1041.96 | 1.41644 | 16.961 | 1326.2 | 30.79 | – | 3.451
288.15 K | 1039.26 | 1.41528 | 16.736 | 1316.8 | 30.43 | – | 3.184
290.65 K | 1036.54 | 1.41414 | 16.496 | 1307.5 | 30.18 | – | 2.947
293.15 K | 1033.82 | 1.41301 | 16.166 | 1298.3 | 29.95 | – | 2.735
295.65 K | 1031.09 | 1.41188 | 15.961 | 1289 | 29.67 | – | 2.546
298.15 K | 1028.37 | 1.41074 | 15.711 | 1279.7 | 29.49 | – | 2.375
300.65 K | 1025.63 | 1.40959 | 15.448 | 1270.5 | 29.23 | – | 2.221
303.15 K | 1022.89 | 1.40843 | 15.18 | 1261.2 | 28.88 | 0.436 | 2.081
305.65 K | 1020.15 | 1.40729 | 14.917 | 1251.9 | 28.64 | – | 1.955
308.15 K | 1017.4 | 1.40615 | 14.639 | 1242.6 | 28.42 | 0.603 | 1.838
310.65 K | 1014.64 | 1.40501 | 14.373 | 1233.3 | 28.12 | – | 1.733
313.15 K | 1011.88 | 1.40381 | 14.107 | 1224 | 27.84 | 0.829 | 1.636
315.65 K | 1009.12 | 1.40267 | 13.843 | 1214.7 | 27.46 | – | 1.547
318.15 K | 1006.34 | 1.40152 | 13.573 | 1205.4 | 27.19 | 1.142 | 1.466
320.65 K | 1003.57 | 1.40036 | 13.298 | 1196.1 | 26.92 | – | 1.391
323.15 K | 1000.78 | 1.39918 | 13.045 | 1186.8 | 26.65 | 1.536 | 1.321
325.65 K | 997.99 | 1.39798 | 12.786 | 1177.6 | 26.29 | – | 1.255
328.15 K | 995.193 | 1.39684 | 12.538 | 1168.4 | 26.08 | 2.015 | 1.196
330.65 K | 992.389 | 1.3956 | 12.286 | 1159.1 | 25.92 | – | 1.14
333.15 K | 989.579 | 1.39448 | 12.044 | 1149.9 | 25.48 | 2.717 | 1.087
335.65 K | 986.763 | 1.3933 | 11.787 | 1140.7 | 25.32 | – | 1.037
338.15 K | 983.942 | 1.39215 | 11.495 | 1131.6 | 25.05 | 3.523 | 0.9907
343.15 K | – | – | – | – | – | 4.591 | –
348.15 K | – | – | – | – | – | 5.851 | –
353.15 K | – | – | – | – | – | 7.323 | –
358.15 K | – | – | – | – | – | 9.29 | –
363.15 K | – | – | – | – | – | 11.49 | –
368.15 K | – | – | – | – | – | 14.19 | –
373.15 K | – | – | – | – | – | 17.37 | –
378.15 K | – | – | – | – | – | 21.11 | –
383.15 K | – | – | – | – | – | 25.51 | –
388.15 K | – | – | – | – | – | 30.62 | –
393.15 K | – | – | – | – | – | 36.24 | –
398.15 K | – | – | – | – | – | 42.71 | –
403.15 K | – | – | – | – | – | 50.4 | –
408.15 K | – | – | – | – | – | 59.11 | –
413.15 K | – | – | – | – | – | 69.13 | –
418.15 K | – | – | – | – | – | 80.2 | –
423.15 K | – | – | – | – | – | 92.51 | –
